This is an account of results in publication PMC3640414 (Journal of Medicinal Chemistry, 2013).

The inhibition is the share of the control response that was lost under treatment. A word on the IC50: it is the midpoint of a concentration-inhibition curve.

Some results are limits rather than exact numbers.

Series [1] deals with T1, BRD4(1) (Homo sapiens, UniProt O60885).
T1 construct: amplify the N-terminal bromodomain region of the protein; made in house
Put plainly: AlphaScreen peptide displacement assay (ALPHA), BRD4(1). The format is binding. As to conditions: for selectivity for BRD4(1) over CREBBP bromodomain: comparison of ALPHA IC50 values. For orientation: Alpha assays give light when donor and acceptor beads are brought close together.

Series [2] deals with T2, PB1(1) (Homo sapiens, UniProt Q86U86).
T2 construct: the bromodomains from ATAD2, BAZ1A, BAZ2A, BAZ2B, BRD9, BRPF3, CECR2, GCN5L2, PHIP(1), PB1(1), and TIF1α; made in house
T2 sequence (Q86U86 41-151 limits assumed): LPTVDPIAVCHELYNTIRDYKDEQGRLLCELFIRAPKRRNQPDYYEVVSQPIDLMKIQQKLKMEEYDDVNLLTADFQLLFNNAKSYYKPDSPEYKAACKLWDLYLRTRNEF
The series is described as follows: ALPHA selectivity panel, PB1(1). As to conditions: 25 μM compound, ALPHA assay. The series is classed as binding. Here is the method: (§1) The ALPHA assay was also used to determine the selectivity of 8, 9, and 17, 21–23 for BRD4(1) over the bromodomain of CREBBP (Table 2). […] The selectivity of 8 was further evaluated across a phylogenetically diverse range of bromodomains (Figure 5).
(§2) Bromodomain AlphaScreen assays were carried out as previously described.[24],[30] All experiments were carried out in duplicate on the same plate.

Series [3] has as its system A549 (lung adenocarcinoma) cells. The series is described as follows: MTS cytotoxicity assay, A549 cells. The series is classed as cell-based. The conditions noted are these: 100 μM, 72 h. The source says: (§3) We also investigated the effects of 8 and 9 in two lung adenocarcinoma cell lines, A549 and H1975. […] H1975 appeared to be somewhat more sensitive to these compounds, a finding confirmed by a clonogenic survival assay (Supporting Information Figure S5).
(§4) Viability of MV4;11, H549, and H1975 cells was monitored by MTS-based CellTiter 96 AQueous nonradioactive cell proliferation assay (Promega, Madison, WI). Viability of U2OS and HeLa cells was monitored by WST-based cell proliferation kit (Roche, Mannheim, Germany). Further details are provided in Supporting Information
On the technique in general: Tetrazolium assays rely on reduction of a dye to a coloured formazan, in cell work by metabolically active cells.

Series [4] has as its target T3, ATAD2 (Homo sapiens, UniProt Q6PL18).
T3 construct: the bromodomains from ATAD2, BAZ1A, BAZ2A, BAZ2B, BRD9, BRPF3, CECR2, GCN5L2, PHIP(1), PB1(1), and TIF1α; made in house
T3 sequence (Q6PL18 980-1092 limits assumed): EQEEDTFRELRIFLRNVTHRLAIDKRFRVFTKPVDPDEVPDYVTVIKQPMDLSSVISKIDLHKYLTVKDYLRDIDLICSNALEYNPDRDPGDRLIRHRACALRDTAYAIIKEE
The series is described as follows: ALPHA selectivity panel, ATAD2. The conditions noted are these: 25 μM compound, ALPHA assay. The format is binding. The procedure: as §1, §2

In series [5] the target is T4, PHIP(1) (Homo sapiens, UniProt Q8WWQ0).
T4 construct: the bromodomains from ATAD2, BAZ1A, BAZ2A, BAZ2B, BRD9, BRPF3, CECR2, GCN5L2, PHIP(1), PB1(1), and TIF1α; made in house
Put plainly: ALPHA selectivity panel, PHIP(1). The format is binding. As to conditions: 25 μM compound, ALPHA assay. The procedure:
as §1, §2

For series [6], the target named is T5, CREBBP bromodomain (Homo sapiens, UniProt Q92793).
T5 construct: made in house
T5 sequence (Q92793 1085-1192 limits assumed): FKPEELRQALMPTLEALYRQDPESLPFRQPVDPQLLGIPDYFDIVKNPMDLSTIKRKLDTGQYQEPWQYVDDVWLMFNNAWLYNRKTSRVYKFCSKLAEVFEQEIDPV
The series is described as follows: AlphaScreen peptide displacement assay (ALPHA), CREBBP. The format is binding. As to conditions: 25 μM compound.

For series [7], the target named is T6, TIF1α (Homo sapiens, UniProt O15164).
T6 construct: the bromodomains from ATAD2, BAZ1A, BAZ2A, BAZ2B, BRD9, BRPF3, CECR2, GCN5L2, PHIP(1), PB1(1), and TIF1α; made in house
T6 sequence (O15164 899-1004 limits assumed): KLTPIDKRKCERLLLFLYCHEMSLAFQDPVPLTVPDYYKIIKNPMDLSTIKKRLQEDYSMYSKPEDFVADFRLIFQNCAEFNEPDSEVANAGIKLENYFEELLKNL
The series is described as follows: ALPHA selectivity panel, TIF1α. As to conditions: 25 μM compound, ALPHA assay. The format is binding. Here is the method:
as §1, §2

For series [8], the target named is T7, BAZ2A (Homo sapiens, UniProt Q9UIF9).
T7 construct: the bromodomains from ATAD2, BAZ1A, BAZ2A, BAZ2B, BRD9, BRPF3, CECR2, GCN5L2, PHIP(1), PB1(1), and TIF1α; made in house
T7 sequence (Q9UIF9 1793-1897 limits assumed): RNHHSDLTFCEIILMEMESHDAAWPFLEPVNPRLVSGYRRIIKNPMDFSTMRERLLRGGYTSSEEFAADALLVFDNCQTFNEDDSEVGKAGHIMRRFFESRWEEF
Put plainly: ALPHA selectivity panel, BAZ2A. The format is binding. The conditions noted are these: 25 μM compound, ALPHA assay. Here is the method:
as §1, §2

For series [9], the system named is U2OS (osteosarcoma) cells. Put plainly: WST-1 viability assay, U2OS cells. The format is cell-based. As to conditions: Homo sapiens, viability after 72 h incubation using MTS, read-out: IC50, U2OS (osteosarcoma).
In series [10] the target is T8, BRPF3 (Homo sapiens, UniProt Q9ULD4).
T8 construct: the bromodomains from ATAD2, BAZ1A, BAZ2A, BAZ2B, BRD9, BRPF3, CECR2, GCN5L2, PHIP(1), PB1(1), and TIF1α; made in house
T8 sequence (Q9ULD4 589-693 limits assumed): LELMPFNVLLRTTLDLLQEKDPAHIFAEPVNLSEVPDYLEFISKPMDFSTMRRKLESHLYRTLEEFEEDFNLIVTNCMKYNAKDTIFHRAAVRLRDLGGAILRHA
Put plainly: ALPHA selectivity panel, BRPF3. The format is binding. As to conditions: 25 μM compound, ALPHA assay. The procedure: as §1, §2

The target of series [11] is T9, BRD9 (Homo sapiens, UniProt Q9H8M2).
T9 construct: the bromodomains from ATAD2, BAZ1A, BAZ2A, BAZ2B, BRD9, BRPF3, CECR2, GCN5L2, PHIP(1), PB1(1), and TIF1α; made in house
T9 sequence (Q9H8M2 136-240 limits assumed): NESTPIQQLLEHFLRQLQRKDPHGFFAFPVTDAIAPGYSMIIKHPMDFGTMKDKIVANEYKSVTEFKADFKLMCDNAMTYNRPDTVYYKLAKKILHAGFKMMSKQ
The series is described as follows: ALPHA selectivity panel, BRD9. The format is binding. The conditions noted are these: 25 μM compound, ALPHA assay. The procedure: as §1, §2

Series [12] concerns the target T10, CECR2 (Homo sapiens, UniProt Q9BXF3).
T10 construct: the bromodomains from ATAD2, BAZ1A, BAZ2A, BAZ2B, BRD9, BRPF3, CECR2, GCN5L2, PHIP(1), PB1(1), and TIF1α; made in house
The series is described as follows: ALPHA selectivity panel, CECR2. The series is classed as binding. The conditions noted are these: 25 μM compound, ALPHA assay. Here is the method: as §1, §2

Series [13] concerns the target T11, BAZ1A (Homo sapiens, UniProt Q9NRL2).
T11 construct: the bromodomains from ATAD2, BAZ1A, BAZ2A, BAZ2B, BRD9, BRPF3, CECR2, GCN5L2, PHIP(1), PB1(1), and TIF1α; made in house
T11 sequence (Q9NRL2 1430-1533 limits assumed): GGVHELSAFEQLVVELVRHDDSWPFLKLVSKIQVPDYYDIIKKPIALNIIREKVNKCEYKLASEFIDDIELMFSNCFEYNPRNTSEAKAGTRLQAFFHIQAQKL
Put plainly: ALPHA selectivity panel, BAZ1A. The series is classed as binding. The conditions noted are these: 25 μM compound, ALPHA assay. Here is the method: as §1, §2

The test system of series [14] is H1975 (lung adenocarcinoma) cells. Put plainly: MTS cytotoxicity assay, H1975 cells. The format is cell-based. As to conditions: 100 μM, 72 h.
Description: as §3, §4

Series [15] concerns HeLa (cervical adenocarcinoma) cells. The series is described as follows: WST-1 viability assay, HeLa cells. The series is classed as cell-based. As to conditions: Homo sapiens, viability after 72 h incubation using MTS, read-out: IC50, HeLa (cervical adenocarcinoma).
Series [16] concerns the target T12, GCN5L2 (Homo sapiens, UniProt Q92830).
T12 construct: the bromodomains from ATAD2, BAZ1A, BAZ2A, BAZ2B, BRD9, BRPF3, CECR2, GCN5L2, PHIP(1), PB1(1), and TIF1α; made in house
T12 sequence (Q92830 728-832 limits assumed): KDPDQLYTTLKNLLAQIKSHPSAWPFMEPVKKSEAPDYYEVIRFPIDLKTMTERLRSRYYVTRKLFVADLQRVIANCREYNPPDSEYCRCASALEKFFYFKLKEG
Put plainly: ALPHA selectivity panel, GCN5L2. The series is classed as binding. The conditions noted are these: 25 μM compound, ALPHA assay. The procedure: as §1, §2

The target of series [17] is T13, BAZ2B (Homo sapiens, UniProt Q9UIF8).
T13 construct: the bromodomains from ATAD2, BAZ1A, BAZ2A, BAZ2B, BRD9, BRPF3, CECR2, GCN5L2, PHIP(1), PB1(1), and TIF1α; made in house
T13 sequence (Q9UIF8 2060-2164 limits assumed): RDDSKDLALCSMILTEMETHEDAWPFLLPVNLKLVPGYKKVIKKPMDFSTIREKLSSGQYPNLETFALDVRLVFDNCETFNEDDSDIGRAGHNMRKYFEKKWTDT
The series is described as follows: ALPHA selectivity panel, BAZ2B. The format is binding. The conditions noted are these: 25 μM compound, ALPHA assay. Here is the method:
as §1, §2

T10 sequence (Q9BXF3 434-538 limits assumed): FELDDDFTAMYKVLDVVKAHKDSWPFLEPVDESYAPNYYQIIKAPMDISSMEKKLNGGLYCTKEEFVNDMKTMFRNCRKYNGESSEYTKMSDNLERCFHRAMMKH

With `CCOc1cc(-c2c(C)noc2C)cc(C(O)c2ccccc2)c1` (centres unmarked) [Compound 12, (3-(3,5-Dimethylisoxazol-4-yl)-5-ethoxyphenyl)(phenyl)methanol], the “selectivity for BRD4(1) over CREBBP bromodomain” value in series [1] is listed as “approximately 6 fold”. The compound also returned a ligand efficiency in series [1] (for BRD4(1)) of 0.36.

As to `Cc1noc(C)c1-c1cc(O)cc(C(O)c2ccccc2)c1` (centres unmarked) [Compound 8, 3-(3,5-Dimethylisoxazol-4-yl)-5-(hydroxy(phenyl)methyl)phenol], the “percentage inhibition of PB1(1) bromodomain” value in series [2] was “little affinity”. Moreover, the inhibition at 25 µM in [2] (read-out: percentage inhibition of PB1(1) bromodomain) is under 25%; in series [4] (read-out: percentage inhibition of ATAD2 bromodomain), under 25%; in series [5] (read-out: percentage inhibition of PHIP(1) bromodomain), under 25%; in [6], about 100%; in [7] (read-out: percentage inhibition of TIF1α bromodomain) it was under 25%; in series [8] (read-out: percentage inhibition of BAZ2A bromodomain) it was under 25%. Further, the inhibition at 25 µM in series [10] (read-out: percentage inhibition of BRPF3 bromodomain) is under 25%; in [11] (read-out: percentage inhibition of BRD9 bromodomain) it was under 25%; in series [12] (read-out: percentage inhibition of CECR2 bromodomain), under 25%; in [13] (read-out: percentage inhibition of BAZ1A bromodomain), under 25%; in series [1] (25 μM compound, ALPHA assay, read-out: inhibition of the BRD4(1) bromodomain), about 100%; in series [16] (read-out: percentage inhibition of GCN5L2 bromodomain), under 25%. The inhibition at 25 µM in series [17] (read-out: percentage inhibition of BAZ2B bromodomain) was under 25%. Further, the “effect on viability of A549 cells” value in [3] is on record as “markedly reduced the viability”. Further, in [4], the “percentage inhibition of ATAD2 bromodomain” value is reported as “little affinity”. Also, the “percentage inhibition of PHIP(1) bromodomain” value in series [5] is listed as “little affinity”. In addition, in [7], the “percentage inhibition of TIF1α bromodomain” value is given as “little affinity”. For the same compound, the “percentage inhibition of BAZ2A bromodomain” value in series [8] is listed as “little affinity”. In addition, the results for the IC50 in series [9] and in [15] were 19 µM and 24 µM, respectively. Moreover, in [10], the “percentage inhibition of BRPF3 bromodomain” value is “little affinity”. The “percentage inhibition of BRD9 bromodomain” value in series [11] is given as “little affinity”. Further, the “percentage inhibition of CECR2 bromodomain” value in series [12] is “little affinity”. The “percentage inhibition of BAZ1A bromodomain” value in series [13] is listed as “little affinity”. In addition, the “effect on viability of H1975 cells” value in series [14] is listed as “markedly reduced the viability”. The “percentage inhibition of GCN5L2 bromodomain” value in series [16] is reported as “little affinity”. Besides, the “percentage inhibition of BAZ2B bromodomain” value in [17] is given as “little affinity”.

Turning to `CC(=O)Oc1cc(-c2c(C)noc2C)cc(C(O)c2ccccc2)c1` (centres unmarked) [Compound 9, 3-(3,5-Dimethylisoxazol-4-yl)-5-(hydroxy(phenyl)methyl)phenyl Acetate], in series [3], the “effect on viability of A549 cells” value was “markedly reduced the viability”. Besides, the “effect on viability of H1975 cells” value in series [14] is recorded as “markedly reduced the viability”.

Regarding `CCOc1cc(-c2c(C)noc2C)cc(C(C)O)c1` (centres unmarked) [Compound 3], the “selectivity for BRD4(1) over CREBBP bromodomain” value in [1] was “approximately 6 fold”. Besides, in series [1] (for BRD4(1)), the ligand efficiency came out at 0.39 and the lipophilic ligand efficiency amounted to 3.12.
